From US12729381B2, “Methods and compositions for inactivating interleukin-2-inducible t-cell kinase (ITK)” (priority 2020, dated 2026)
“Also recorded” adds a separate entry of the source.

How the values were obtained:
[1] = tested on: other kinases including mTOR and AKT; assay: Western blot of phospho-kinases in T cells cultured with commercially available ITK inhibitors; format: cell-based; conditions: mouse T cells (10n, CTA056) and human PBMC T cells (10n); pAKT, pmTOR
From the text: Novel peptide inhibitor SLP76pTYR specifically targets ITK signaling and enhances Treg cell development. Since T cells from SLP76Y145FKI mice can separate GVHD from GVL, we sought to determine whether disruption of ITK signaling with pharmacological agents would have a similar effect. […] Thus, we sought to design a novel inhibitor that would explicitly target the SLP76-ITK interaction and signaling by preventing the SH2 domain of ITK from docking onto SLP76 at tyrosine 145. Since evolution usually selects residues at specific protein: protein interfaces for certain properties (Pletneva et al., 2006), we analyzed the physico-chemical and structural properties of the interface of the SH2 domain and SLP76-pY145 in our quest to generate a potent inhibitor of the ITK-SH2 domain: SLP76-pY145 interaction (FIG. 17A,B). […]
(FIG. 27A) WT mouse T cells were cultured with either 10n or vehicle, then lysed post-incubation, and lysates were western blotted for pITK (size 50-75 kDa), pPLCγ1 (size ~155 kDa), PERK (size ~42 kDa), pAKT (size ~60 kDa), and pmTOR (size 240 kDa). (FIG. 27B) Western blots from three experiments were quantitated and normalized to actin. […] (FIG. 27D) Western blots from three experiments were quantitated and normalized to actin. […] (FIG. 27F) Western blots from three experiments were quantitated and normalized to β-Actin. […]

S1P1 = S1P1 (Mus musculus, UniProt O08530); conditions: retention of T cells in secondary lymphoid organs; cited from earlier work
Chain of S1P1 (O08530 whole entry): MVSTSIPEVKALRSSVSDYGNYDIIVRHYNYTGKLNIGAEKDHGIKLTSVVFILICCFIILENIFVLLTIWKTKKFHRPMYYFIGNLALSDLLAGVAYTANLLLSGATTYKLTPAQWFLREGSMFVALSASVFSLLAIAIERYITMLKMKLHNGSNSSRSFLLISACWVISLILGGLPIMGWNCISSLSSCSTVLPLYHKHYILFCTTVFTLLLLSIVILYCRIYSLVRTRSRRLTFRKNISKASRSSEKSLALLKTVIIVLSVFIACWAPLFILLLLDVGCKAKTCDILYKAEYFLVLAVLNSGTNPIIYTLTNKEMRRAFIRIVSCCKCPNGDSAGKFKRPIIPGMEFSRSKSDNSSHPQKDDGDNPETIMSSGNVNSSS

Row | Compound | specificity for ITK / inhibition of other kinases [1] | effect on GVHD and GVL (S1P1)
1 | O=c1[nH]c2cc3nc(-c4ccc(-c5ccncc5)cc4)n(CCCN4CCCCC4)c3cc2nc1Cc1ccccc1 [CTA056] | also inhibit several other kinases including mTOR and AKT; also recorded: not specific for ITK | 
2 | CCCCCCCCc1ccc(CCC(N)(CO)CO)cc1 [FTY720] |  | ameliorates GVHD while maintaining GVL effects
3 | CCc1ccc2nc(Nc3cc(Cc4ccccc4)nc(NC4CCC(O)CC4)n3)sc2c1 (stereo not drawn) [GSK2250665A] | also inhibit several other kinases including mTOR and AKT | 
